This passage reports TGI and GI50 results from PubChem BioAssay (NCI).

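Protocol summary: plate cells (96-well), add compound at 5 concentrations, incubate 48 h, interpolate endpoints linearly. Abbreviation: GI50, concentration required for 50% inhibition of growth. TGI: total growth inhibition.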 Some results are limits rather than exact numbers.

Test in all cases: NCI-60 cell line screen, 48 h
The subject of test [1] is 786-0 renal.
The subject of test [2] is HCT-15 colon.
The subject of test [3] is K-562 leukemia.
Test [4] concerns MOLT-4 leukemia.
For test [5], the system named is SF-295 CNS.
Test [6] deals with HOP-92 NSCLC.
The test system of test [7] is DU-145 prostate.
Test [8] concerns MDA-MB-231 breast.
Test [9] has as its system BT-549 breast.
For test [10], the system named is MCF7 breast.
The test system of test [11] is MDA-N.

For the compound `C[C@H]1[C@H](C)CC[C@]2(C(=O)O)CCC3(COC(=O)/C=C/c4ccc(O)cc4)C(=CCC4[C@@]5(C)CC[C@H](O)C(C)(C)C5CC[C@]43C)[C@H]12` (stereo partly drawn), the TGI in test [1] was 16 µM; in [2], 15.7 µM; in [3], 20.9 µM; in [4] it was 32.4 µM; in [5], 13.2 µM.
Regarding `CCOC(=O)C(C(=O)OCC)S(C)(=O)=O`, the TGI in [1], in test [6], in test [3], in [4] and in test [5] was over 100 µM throughout.
Consider `Cn1cc(-c2csc(-c3cn(CCCN4CCCCC4)c4ccc(Br)cc34)n2)c2cccnc21`, for which the GI50 in test [7] was 1.79 µM; in [6] it was 1.79 µM; in [8], 1.72 µM. The values for the TGI in test [7], in [6] and in [8] were 3.21 µM, 3.63 µM and 3.21 µM, respectively.
With `CN(C)C1(N(C)C)Oc2c(c(=O)n(C)c(=O)n2C)C(c2ccc(F)cc2)C1(F)F` (stereo not drawn), the TGI in [1], in test [9], in test [7], in test [2], in [6] and in test [10] was over 100 µM throughout. Also, the TGI in test [8] and in [5] was over 100 µM each time.
`[O-][N+]1=C(c2ccccc2)/C(=C2/C(c3ccccc3)=[N+]([O-])c3ccccc32)Cc2ccccc21`: the TGI was 34.9 µM in test [1]; 63.8 µM in test [7]; 36.7 µM in test [2]; 32.9 µM in test [6]; 58.1 µM in [3]; over 100 µM in [10]. Besides, the TGI was found to be 33.5 µM in test [8], 31.7 µM in test [11], 54.3 µM in test [4] and 42.9 µM in test [5].
For `O=S1(=O)OCCOS(=O)(=O)C1(Br)Br`, the TGI in test [1], in [6], in test [3], in test [4] and in test [5] was over 100 µM each time.
On to `CC(=O)c1sc2c(c1OC(=O)c1ccccc1)c(=O)n(-c1ccccc1)c(=S)n2-c1ccccc1`, for which the TGI in test [1] was 17.9 µM; in test [7] it was 79 µM; in test [2], 62.9 µM; in test [6], 5.94 µM; in test [3] it was over 58.3 µM; in test [10], 99.8 µM. Besides, the TGI was 22.7 µM in test [8], 27.2 µM in test [11], 8.3 µM in test [4] and 16.7 µM in test [5].
Consider `O=C(Cn1c2ccc(Br)cc2c2nc3ccccc3nc21)N1CCOCC1`, for which the TGI was over 100 µM in test [1]; over 100 µM in test [9]; over 100 µM in [7]; over 100 µM in test [2]; 83.3 µM in [6]; over 100 µM in test [3]. The TGI in [8], in [11], in test [4] and in test [5] was over 100 µM in each case.
Regarding `O=C(O)C1Cc2[nH]c3ccccc3c2C2CCCC12` (stereo not drawn), the TGI in test [1], in test [2], in test [6], in test [3], in [4] and in test [5] was over 100 µM in each case.
For `CC(C)OP(=O)(OC(C)C)/C(=N/Nc1ccc([N+](=O)[O-])cc1)NNC(=O)c1ccccc1`, the TGI in [1] was over 100 µM; in test [2], over 100 µM; in [6] it was 61.3 µM; in test [3], over 100 µM; in test [4], 42.2 µM.
For the compound `Cc1cc(N(CCC#N)CCC#N)ccc1/C=C(\N=[N+]=[N-])C(=O)NC(=O)COc1ccccc1`, the TGI in test [1], in [2], in test [6], in test [3], in test [4] and in test [5] was over 100 µM throughout.
For the compound `O=C(O)CCC1(CCC(=O)O)CCCCCCCCC(CCC(=O)O)(CCC(=O)O)C(=O)C1=O`, the TGI in [1], in test [7], in [2], in test [6], in [3] and in [10] was over 100 µM in each case. For the same compound, the TGI in [5] is over 100 µM.
In the case of `COc1cc2cnc3c4cc(O)ccc4ccc3c2cc1OC`, the TGI in test [1], in test [2], in test [6], in test [3], in test [4] and in test [5] was over 100 µM each time.
Consider `CC(c1ccccc1)n1c2ccccc2c2c(N)ncnc21` (stereo not drawn), for which the TGI in [1] is 28.6 µM; in test [7], 42.8 µM; in test [2] it was 59.4 µM; in test [6], 27.6 µM; in test [3], 71.9 µM; in test [10], 37.2 µM. The TGI in test [8] is 34.9 µM; in test [11] it was 51.9 µM; in [4], 52.7 µM; in test [5], 36.6 µM.
`COc1ccccc1NC(=O)C(=O)C(c1cnc2ccc([N+](=O)[O-])cc2n1)[N+](=O)[O-]` (stereo not drawn): the TGI in test [1], in test [2], in [6], in test [3], in [4] and in test [5] was over 100 µM throughout.
On to `CCCC1(N2C(=O)c3ccc4c5c(ccc(c35)C2=O)N(C2(CCC)CCCCC2)C4=O)CCCCC1`, for which the TGI in test [1], in test [7], in test [2], in test [6], in [3] and in test [10] was over 100 µM throughout. The TGI in test [8], in test [11], in [4] and in test [5] was over 100 µM throughout.
For the compound `Cc1ccc2nc(-c3nccn3C)cc(C(=O)NC(C)CN(C)C)c2c1` (stereo not drawn), the TGI in test [1], in test [9], in test [7], in test [2], in [6] and in [10] was over 100 µM in each case. The TGI in test [8] and in test [11] was over 100 µM in each case.
For `Cc1nc2c(n1Cc1ccc(F)cc1)C(=O)c1ccccc1C2=O`, the TGI in [1] is over 100 µM; in test [2], over 100 µM; in [3], 86.9 µM; in test [4], over 100 µM; in test [5] it was over 100 µM.
